Each structure is given as a SMILES string.

One assay addresses T1, β-cardiac myosin (Homo sapiens, UniProt P12883).
T1 construct: gene MYH7; with actin (porcine ventricles); endogenous C2C12 light chains
The assay can be described thus: NADH-linked actin-activated ATPase assay with purified recombinant S1. The assay is classed as biochemical. An excerpt:
NADH-linked actin-activated ATPase assay with purified recombinant S1 on β-cardiac myosin | we measured the IC50 value for β-cardiac myosin S1.

A further assay concerns the target T2, Myh7b (Homo sapiens, UniProt A7E2Y1).
T2 construct: with actin (porcine ventricles); endogenous C2C12 light chains
T2 sequence (A7E2Y1 43-892): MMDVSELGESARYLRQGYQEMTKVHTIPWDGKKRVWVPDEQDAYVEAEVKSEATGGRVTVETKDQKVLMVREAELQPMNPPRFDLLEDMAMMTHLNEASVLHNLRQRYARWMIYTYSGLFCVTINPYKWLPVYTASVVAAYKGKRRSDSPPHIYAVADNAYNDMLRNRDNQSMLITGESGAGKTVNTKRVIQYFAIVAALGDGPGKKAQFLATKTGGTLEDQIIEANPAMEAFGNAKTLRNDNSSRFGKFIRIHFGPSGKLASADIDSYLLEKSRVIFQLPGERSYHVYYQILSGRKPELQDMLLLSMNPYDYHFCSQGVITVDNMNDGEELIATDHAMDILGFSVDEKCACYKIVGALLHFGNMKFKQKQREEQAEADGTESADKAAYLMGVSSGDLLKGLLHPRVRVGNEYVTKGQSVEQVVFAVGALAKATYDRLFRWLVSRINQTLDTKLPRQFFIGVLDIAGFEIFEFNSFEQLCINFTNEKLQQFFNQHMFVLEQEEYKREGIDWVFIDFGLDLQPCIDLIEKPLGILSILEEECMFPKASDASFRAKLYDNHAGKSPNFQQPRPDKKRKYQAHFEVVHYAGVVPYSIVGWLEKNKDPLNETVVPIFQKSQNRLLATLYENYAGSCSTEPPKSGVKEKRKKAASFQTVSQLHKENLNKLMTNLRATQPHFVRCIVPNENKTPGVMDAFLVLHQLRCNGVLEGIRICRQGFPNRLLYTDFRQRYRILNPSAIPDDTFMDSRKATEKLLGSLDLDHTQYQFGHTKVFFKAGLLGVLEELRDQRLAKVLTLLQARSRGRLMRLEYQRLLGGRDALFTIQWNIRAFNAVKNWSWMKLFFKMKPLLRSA
The description is as above. Type of assay: biochemical.

T1 sequence (P12883 1-842): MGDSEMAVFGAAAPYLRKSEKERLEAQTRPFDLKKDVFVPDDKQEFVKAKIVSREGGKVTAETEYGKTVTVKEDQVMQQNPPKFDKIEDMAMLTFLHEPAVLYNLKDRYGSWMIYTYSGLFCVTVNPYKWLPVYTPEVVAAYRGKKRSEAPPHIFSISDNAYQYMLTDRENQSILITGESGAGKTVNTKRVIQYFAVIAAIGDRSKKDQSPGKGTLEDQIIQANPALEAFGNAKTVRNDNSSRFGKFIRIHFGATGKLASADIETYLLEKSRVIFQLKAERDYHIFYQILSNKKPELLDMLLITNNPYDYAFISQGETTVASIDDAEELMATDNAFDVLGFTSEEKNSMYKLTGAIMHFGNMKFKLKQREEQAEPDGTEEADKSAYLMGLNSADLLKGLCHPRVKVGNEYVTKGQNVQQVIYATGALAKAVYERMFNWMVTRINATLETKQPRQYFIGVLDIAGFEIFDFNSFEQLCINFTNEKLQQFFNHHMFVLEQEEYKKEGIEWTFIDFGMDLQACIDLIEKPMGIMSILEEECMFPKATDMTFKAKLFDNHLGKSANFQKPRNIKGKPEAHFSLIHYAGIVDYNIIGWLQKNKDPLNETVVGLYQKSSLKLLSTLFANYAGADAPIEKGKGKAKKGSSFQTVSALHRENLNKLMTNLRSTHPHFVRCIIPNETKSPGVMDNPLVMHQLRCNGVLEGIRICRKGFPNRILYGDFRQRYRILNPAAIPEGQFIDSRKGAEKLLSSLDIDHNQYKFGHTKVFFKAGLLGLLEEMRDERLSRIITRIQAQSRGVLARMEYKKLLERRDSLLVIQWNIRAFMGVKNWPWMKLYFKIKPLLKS

The IC50 is the concentration at which inhibition is half-maximal. As to `Cc1ccc2c(c1)C(=O)[C@]1(O)CCN(c3ccccc3)C1=N2` [Blebbistatin], the IC50 came to 1120 ± 290 nM on β-cardiac myosin and 360 ± 80 nM at Myh7b.

Values taken from publication PMC9995120, “Drug specificity and affinity are encoded in the probability of cryptic pocket opening in myosin motor domains” (eLife, 2023).
